Experimental data from paper PMC7998731, “Pharmacokinetic Characterization of Supinoxin and Its Physiologically Based Pharmacokinetic Modeling in Rats” (Pharmaceutics, 2021).
Values joined by “and” are separate entries in the source; they are usually repeats but may differ in a detail not shown here. Equal entries are not always repeated. Where two headings read alike, the source gives them in different places.

Tests used:
[1] = Metabolic stability in rat liver microsomes; assay type: in vitro ADME
Description: In these experiments, the metabolic stability of supinoxin in rat liver microsomes (BD Biosciences, San Jose, CA, USA) was determined. The microsomal reaction mixture comprised the follows: liver microsomal protein (final concentration of 0.5 mg protein per mL reaction mixture) and an NADPH regenerating solution (1.3 mM NADP+, 3.3 mM glucose-6-phosphate, 0.4 U/mL glucose-6-phosphate dehydrogenase, and 3.3 mM MgCl2) in a 100 mM potassium phosphate buffer with a pH of 7.4. After 5 min preincubation of the reaction mixture in a water bath at 37 °C, the reaction was initiated by the addition of a supinoxin solution to obtain a final concentration of 1 µM. Aliquots (50 µL) of the mixture were sampled at 5, 15, 30, and 60 min after the initiation of the reaction. The reaction was terminated by adding a stop solution (200 µL of ice-chilled acetonitrile) to the sample immediately after collection. After mixing by vortexing and centrifugation of the mixtures at 15,000× g for 5 min, an aliquot (150 µL) of the supernatant was analyzed by LC–MS/MS assay. In addition, the metabolic stability of supinoxin was determined in the presence of UDP glucuronic acid under similar reaction conditions, except that uridine 5′-diphosphoglucuronic acid was added instead of the NADPH regenerating solution. Finally, metabolic stability of supinoxin was tested in concentration range of 0.1–10 μM to confirm that the concentration used in the study (1 μM) was below the Km for the metabolic reaction. The amount of sample remaining was plotted against the reaction time to determine the metabolic rate constant of the reaction. Assuming that the substrate concentration was below the Km for the metabolic reaction, the intrinsic clearance was calculated as follows:(6) CLint= Aprotein×ke/fu,mic·Cprotein where Aprotein is the total amount of liver microsomal protein, ke is the metabolic rate constant of the reaction, fu,mic is the unbound fraction of the drug in the reaction mixture, and Cprotein is the microsomal protein concentration (mg/mL) in the reaction mixture. In this calculation, an Aprotein of 1790 mg of protein per kg for rats was used.
When necessary, the hepatic clearance of the compound was calculated using a well-stirred model as follows: (7) CLh= Q·CLint·fu,p/Q+CLint·fu,p/R where Q is the hepatic blood flow, fu,p is the unbound fraction of the drug in the plasma, and R is the blood-to-plasma partition ratio. In this calculation, a hepatic blood flow of 14.5 mL/min for 250 g rat was used, and the blood-to-plasma partition ratio was assumed to be 1.

[2] = Plasma protein binding by Rapid Equilibrium Dialysis; assay type: in vitro ADME; conditions: rat plasma
Description: (§1) To determine the unbound fraction of supinoxin in the plasma, a protein binding study was carried out using the Rapid Equilibrium Dialysis (RED) method. Following the manufacturer’s protocol (Thermo Fisher Scientific, San Jose, CA, USA), supinoxin was added to a plasma aliquot to produce a final concentration of 1 µg/mL. A plasma aliquot containing supinoxin (200 µL) and buffer (350 µL) was added to the sample chamber and the buffer chamber, respectively. When necessary, supinoxin was added to the microsomal incubation mixture (0.5 mg of protein per mL in potassium phosphate buffer) to produce final concentrations of 1 µM. The plate was covered and agitated on an orbital shaker at approximately 250 rpm at 37 °C. Aliquots (25 µL) of the plasma and buffer were collected at 4, 8, 18, and 24 h, and the samples were subjected to LC–MS/MS analysis. The fraction of supinoxin bound to plasma protein was estimated as follows:Percent bound (%) = [1 − (concentration in buffer/concentration in plasma)] × 100%(5)

[3] = Determination of urinary and fecal excretion in rats; assay type: in vivo; conditions: 5 mg/kg; for Fecal excretion, Amount / Fecal excretion, Fraction Excreted (unchanged) / Urinary excretion, Amount / Urinary excretion, Fraction Excreted (unchanged): 0–48 h
Description: Supinoxin was administered to male SD rats (n = 3–4) at a dose of 5 mg/kg either intravenously (through the tail vein) or by oral gavage, following which rats were kept in metabolic cages and urine and feces samples were collected over the following time intervals: 0–2, 2–4, 4–6, 6–10, 10–24, 24–36, and 36–48 h for urine; 0–10, 10–24, 24–36, and 36–48 h for feces.
The metabolic cages were rinsed with distilled water, and residues were added to the urine samples at 48 h. To extract the supinoxin present in the feces, samples were homogenized with a blender mixer and shaken vigorously for 4 h with 50% methanol.
The amount of drug excreted in urine or feces (Ae) and the dose fractions excreted unchanged in urine or feces (fe) were calculated as:Ae = Cobs, urine or feces × Vurine or feces(2) fe = Ae/Dose(3)
The urinary and fecal clearances of supinoxin were calculated as:CLurine or feces = Ae, urine or feces/AUC(4)

[4] = Unbound fraction in microsomal incubation mixture (Rapid Equilibrium Dialysis); assay type: in vitro ADME; conditions: rat, liver microsomes 0.5 mg protein/mL
Description: as §1

[5] = Tissue distribution (tissue-to-plasma partition) in rats; assay type: in vivo; conditions: male, rat; for Vd: oral; for AUC(0-t): mean, read-out: AUC0–24h

half-life at 1 µM ([1]; pH 7.4, rat liver microsomes, NADPH, 1 µM, read-out: NADPH-dependent metabolic half-life): 17.1 min | CLint scaled at 1 µM ([1]; pH 7.4, rat liver microsomes, NADPH, 1 µM, read-out: intrinsic clearance (converted)): 233 mL/min/kg | remaining amount at the end of the 60-min incubation ([1]; rat liver microsomes, NADPH, 1 µM): 12.7 ± 0.1 % of the initial | remaining amount in UDPGA-dependent metabolic stability study ([1]; rat liver microsomes, UDPGA, 1 µM, 60 min): 92.2 ± 0.1% | half-life versus concentration ([1]; rat liver microsomes, concentration ranges of 0.1–1 μM): remained constant | hepatic clearance as share of the total in vivo clearance ([1]; vs average clearance of 0.5–5 mg/kg intravenous administration): 58.5% | hepatic clearance ([1]; well-stirred model, from rat liver microsomal incubation): 7.38 mL/min/kg | fraction unbound at 4 h, 1 µg/mL ([2]; 1 µg/mL, 4 h incubation): 0.023 ± 0.0025 | fraction unbound at 8 h, 1 µg/mL ([2]; 1 µg/mL, 8 h incubation): 0.0283 ± 0.0019 | fraction unbound at 24 h, 1 µg/mL ([2]; 1 µg/mL, 24 h incubation): 0.0354 ± 0.0055 | fraction unbound at 1 µg/mL ([2]; as fraction, Determined, read-out: Fraction unbound in plasma (fu)): 0.0363 | Fecal excretion, Amount ([3]; IV): 142 ± 21.6 µg | Fecal excretion, Fraction Excreted (unchanged) ([3]; IV): 16.5% and 16.5 ± 2.82% | Urinary excretion, Amount ([3]; IV): 0.27 ± 0.06 µg | Urinary excretion, Fraction Excreted (unchanged) ([3]; IV): 0.03% and 0.03 ± 0.01% | Fecal excretion, Amount ([3]; PO): 412 ± 209 µg | Fecal excretion, Fraction Excreted (unchanged) ([3]; PO): 46.8% and 46.8 ± 24.5% | Urinary excretion, Amount ([3]; PO): 0.06 ± 0.04 µg | Urinary excretion, Fraction Excreted (unchanged) ([3]; PO): 0.01% and 0.01 ± 0.01% | dose excreted ([3]; male, Sprague-Dawley (SD), rat, urine, both intravenous and oral administration, read-out: total urinary recovery of unchanged supinoxin): < 0.1% | fraction unbound at 18 h, 1 µM ([4]; liver microsomal incubation mixture, 18 h incubation): 0.623 ± 0.016 | fraction unbound at 4 h, 1 µM ([4]; 4 h incubation): 0.518 ± 0.025 | fraction unbound at 8 h, 1 µM ([4]; 8 h incubation): 0.57 ± 0.017 | fraction unbound at 24 h, 1 µM ([4]; 24 h incubation): 0.615 ± 0.046 | Vd ([5]; Sprague Dawley, plasma, 5 mg/kg, estimated Kp and tissue volumes from literature, read-out: steady state volume of distribution calculated from Kp and tissue volumes): 1.92 L | AUC(0-t) ([5]; Sprague Dawley, Adipose tissue, rats, oral administration (5 mg/kg)): 111000 ng·h/mL | AUC(0-t) ([5]; Sprague Dawley, Spleen, rats, oral administration (5 mg/kg)): 3310 ng·h/mL | AUC(0-t) ([5]; Sprague-Dawley, kidney, Kidneys, rats, oral administration (5 mg/kg)): 11100 ng·h/mL | Kp ([5]; Sprague-Dawley, kidney, Kidneys, rats, oral administration (5 mg/kg), read-out: Kp (tissue to plasma AUC ratio)): 2.18 | AUC(0-t) ([5]; Sprague-Dawley, lung, Lungs, rats, oral administration (5 mg/kg)): 5520 ng·h/mL | Kp ([5]; Sprague-Dawley, lung, Lungs, rats, oral administration (5 mg/kg), read-out: Kp (tissue to plasma AUC ratio)): 1.08 | AUC(0-t) ([5]; Sprague-Dawley, muscle, Muscles, rats, oral administration (5 mg/kg)): 6130 ng·h/mL | Kp ([5]; Sprague-Dawley, muscle, Muscles, rats, oral administration (5 mg/kg), read-out: Kp (tissue to plasma AUC ratio)): 1.2 | Vd ([5]; Sprague-Dawley, 5 mg/kg, sum of Kp × Volume over plasma and tissues, read-out: Vd): 1.92 L/kg | Kp ([5]; Sprague-Dawley, several tissues (range over tissues), intravenous, 5 mg/kg, range over tissues, PBPK input parameter, Determined, read-out: Tissue: Plasma partition coefficients): 0.649 to 21.7 | AUC(0-t) ([5]; Sprague-Dawley, Adipose tissue, rats, oral administration (5 mg/kg)): 111000 ng·h/mL | Kp ([5]; Sprague-Dawley, Adipose tissue, rats, oral administration (5 mg/kg), read-out: Kp (tissue to plasma AUC ratio)): 21.7 | AUC(0-t) ([5]; Sprague-Dawley, Brain, rats, oral administration (5 mg/kg)): 4350 ng·h/mL | Kp ([5]; Sprague-Dawley, Brain, rats, oral administration (5 mg/kg), read-out: Kp (tissue to plasma AUC ratio)): 0.85 | AUC(0-t) ([5]; Sprague-Dawley, Gut, rats, oral administration (5 mg/kg)): 25300 ng·h/mL | Kp ([5]; Sprague-Dawley, Gut, rats, oral administration (5 mg/kg), read-out: Kp (tissue to plasma AUC ratio)): 4.96 | AUC(0-t) ([5]; Sprague-Dawley, Heart, rats, oral administration (5 mg/kg)): 3550 ng·h/mL | Kp ([5]; Sprague-Dawley, Heart, rats, oral administration (5 mg/kg), read-out: Kp (tissue to plasma AUC ratio)): 0.7 | AUC(0-t) ([5]; Sprague-Dawley, Liver, rats, oral administration (5 mg/kg)): 24300 ng·h/mL | Kp ([5]; Sprague-Dawley, Liver, rats, oral administration (5 mg/kg), read-out: Kp (tissue to plasma AUC ratio)): 4.76 | AUC(0-t) ([5]; Sprague-Dawley, Plasma, rats, oral administration (5 mg/kg)): 5110 ng·h/mL | Kp ([5]; Sprague-Dawley, Plasma, rats, oral administration (5 mg/kg), read-out: Kp (tissue to plasma AUC ratio)): 1 | AUC(0-t) ([5]; Sprague-Dawley, Spleen, rats, oral administration (5 mg/kg)): 3310 ng·h/mL | Kp ([5]; Sprague-Dawley, Spleen, rats, oral administration (5 mg/kg), read-out: Kp (tissue to plasma AUC ratio)): 0.65 | AUC(0-t) ([5]; Sprague-Dawley, Testes, rats, oral administration (5 mg/kg)): 5370 ng·h/mL | Kp ([5]; Sprague-Dawley, Testes, rats, oral administration (5 mg/kg), read-out: Kp (tissue to plasma AUC ratio)): 1.05
SMILES: COc1cc(OC)cc(N2CCN(C(=O)Nc3nc4cc(F)ccc4nc3OC)CC2)c1 [supinoxin, 1-(3,5-Dimethoxyphenyl)-4-[(6-Fluoro-2-Methoxyquinoxalin-3-yl) Aminocarbonyl] Piperazine]
